Laboratory results: US11040035B2, “3-oxo-2,6-diphenyl-2,3-dihydropyridazine-4-carboxamides” (BAYER PHARMA AKTIENGESELLSCHAFT, priority 2016, dated 2021)
Where “and” joins values, the source holds several entries; their conditions need not be identical. Identical values can stand only once. Like-named read-outs stand apart in the source and are kept apart here.

Assays:
AHR [1] = biological target: T1, AHR (Homo sapiens, UniProt P35869); experiment: In vitro assay 1: antagonism in human cell line (transactivation assay, kynurenic acid prestimulated); conditions: Assay 1: AHR-luc Hum Antagonism IC50 [M], 150 μM kynurenic acid, 20 hours, firefly luciferase
T1 sequence (P35869 11-848): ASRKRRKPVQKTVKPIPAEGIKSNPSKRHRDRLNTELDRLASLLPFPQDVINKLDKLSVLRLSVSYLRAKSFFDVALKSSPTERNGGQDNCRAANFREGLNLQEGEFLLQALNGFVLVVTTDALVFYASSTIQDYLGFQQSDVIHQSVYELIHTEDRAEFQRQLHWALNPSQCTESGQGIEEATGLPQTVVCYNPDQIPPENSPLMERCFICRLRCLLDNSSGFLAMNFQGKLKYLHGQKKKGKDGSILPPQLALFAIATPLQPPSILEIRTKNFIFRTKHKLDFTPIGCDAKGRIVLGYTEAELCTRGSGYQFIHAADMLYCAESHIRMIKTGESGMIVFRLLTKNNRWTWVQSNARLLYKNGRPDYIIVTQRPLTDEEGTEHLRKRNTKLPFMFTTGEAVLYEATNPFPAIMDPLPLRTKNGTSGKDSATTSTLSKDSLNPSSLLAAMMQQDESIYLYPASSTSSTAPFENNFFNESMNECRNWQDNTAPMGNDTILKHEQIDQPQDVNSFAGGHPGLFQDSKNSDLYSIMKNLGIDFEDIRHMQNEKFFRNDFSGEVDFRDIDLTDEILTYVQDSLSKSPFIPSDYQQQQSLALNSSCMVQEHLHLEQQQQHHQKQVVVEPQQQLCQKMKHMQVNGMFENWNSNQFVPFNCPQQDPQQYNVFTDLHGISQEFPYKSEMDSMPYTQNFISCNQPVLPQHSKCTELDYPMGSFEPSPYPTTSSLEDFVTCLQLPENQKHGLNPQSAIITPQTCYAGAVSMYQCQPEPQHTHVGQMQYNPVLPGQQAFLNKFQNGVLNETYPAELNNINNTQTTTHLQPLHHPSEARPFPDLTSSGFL

AHR [2] = biological target: T1, AHR; conditions: 20 h
Procedure: (§1) Transactivation Assay in Human Cell Line (In Vitro Assays 1 and 2)
(§2) Transactivation assays were carried out in U87 glioblastoma cells (ATCC) endogenously expressing AHR. In addition the cells were stably transfected with an AHR inducible firefly luciferase reporter gene construct that carried AHR-binding sites (DRE) in its promoter and a renilla reporter gene construct with constitutively active promoter.
(§3) In Vitro Assay 2: Agonism in Human Cell Line
(§4) Cells in medium (tryptophan free RPMI, 1% FCS, 2 mM Glutamine) were grown for 20 hours in absence (negative control) or presence of increasing concentrations of test compounds (typical dilutions: 72 pmol/L, 0.25 nmol/L, 0.89 nmol/L; 3.1 nmol/L, 11 nmol/L, 38 nmol/L, 130 nmol/L, 470 nmol/L, 1.6 μmol/L, 5.7 μmol/L and 20 μmol/L in duplicates). As positive activation control cells were incubated with 300 μM kynurenic acid. Normalization was done by positive and negative controls.
(§5) Firefly luciferase activity was determined by the SteadyGlo Luciferase Assay System (Promega, #2520).

[3] = test system: TNFa production by LPS-stimulated human monocytes; experiment: In vitro assay 4: rescue of TNFa production from human primary monocytes; format: cell-based; conditions: one value per donor; for Emax: Homo sapiens, Monocyte, 18 h, human monocytes, 10 ng/mL LPS + 200 μM KA, 18 hours, highest percent TNFa rescue relative to highest rescue with GNF-351, read-out: Individual Donors % rescue TNFa normalised to ref cmpd
Procedure: In Vitro Assay 4: Rescue of TNFa Production from Human Primary Monocytes
The ability of the substances to enhance immune cell activity was determined. The substances were tested for their capacity to reverse KA-induced inhibition of TNFa production by LPS-stimulated human monocytes. Human monocytes were purified by negative selection from donor PBMCs using Miltenyi beads and seeded at 2×10^5 cells/well in complete growth medium (RPMI 1640, 10% FCS). Monocytes were incubated with 10 ng/mL LPS (0127:68, #L4516, Sigma) and 200 μM KA (#3375, Sigma) and substances were added at concentrations of 1 μM, 0.3 μM and 0.1 μM and cultured for 18 hours. LPS alone served as the positive control. TNFa production in the supernatant was measured by Meso Scale Discovery immunassay and the ability of the substances to rescue TNFa production was calculated as a percentage of LPS stimulation and KA-induced inhibition and normalized to the donor-specific response with the reference AHR antagonist compound GNF-351 (Smith et al., J Pharmacol Exp Ther, 2011, 338(1):318-27).

[4] = test system: AHR-regulated gene CYP1A1; experiment: In vitro assay 3: AHR-regulated CYP1A1 expression in human cell line (U937, qPCR); conditions: Homo sapiens, U-937, 6 h, read-out: Assay 3: Hum CYP1A1 Antagonism IC50 [M], U937 cells, 200 μM KA, 6 hours, qPCR
AHR [5] = biological target: T1, AHR; experiment: In vitro assay 2: agonism in human cell line (transactivation assay)
Procedure: as §1, §2, §3, §4, §5

CT26 tumor cells = experiment: In vivo assay: efficacy of example compound and PD-1-L1 axis antagonist in CT26 tumor model; conditions: female Balb/c mice, CT26 s.c.; example 23 30 mg/kg BID p.o.; aPD-L1 (TPP-3911) 10 mg/kg q3d i.p.; treatment from day 5
Source text: In Vivo Assay: Efficacy of Compositions Comprising an Example Compound and a PD-1-L1 Axis Antagonist
Animals were ordered from Charles River Sulzfeld, Germany and assigned to the study at the age of 8 weeks. Animal husbandry, feeding and health conditions are according to animal welfare guidelines. CT26 cells (aquired from ATCC) were cultivated with RPMI 1640 with 10% FCS and splitted at least 3 times before inoculation. Female Balb/c mice were inoculated with 500.000 CT26 tumor cells in 50% medium/50% matrigel subcutaneously in the flank. After 4 days the animals were randomized and therapeutic treatment started on day 5.
The anti-PDL1 antibody is a chimera of the variable domain of atezolizumab with murine IgG1 CH1, 2 and 3 domains.
Tumor size was measured using calipers determining length (a) and width (b). Tumor volume was calculated according to:
Significance of monotherapies and combination treatment was calculated versus control group as determined by 2-Way ANOVA analysis.
After 4 days the animals were randomized and therapeutic treatment started on day 5. […] Significance of monotherapies and combination treatment was calculated vs. control group as determined by 2-Way ANOVA analysis.

[6] = read-out: Assay 2: AHR-luc Hum Agonism IC50, no kynurenic acid, 20 hours, firefly luciferase
[7] = Assay 2: AHR-luc Hum Agonism IC50 [M], no kynurenic acid, 20 hours, firefly luciferase

| SMILES | IC50 (AHR [1]) [M] | IC50 [4] [M] | IC50 (AHR [5]; [6]) [M] | IC50 (AHR [5]; [7]) [M] | IC50 (AHR [2]) [nM] | Emax [3] [%] | T/C, ratio of tumor size under treatment versus tumor size in the control group (CT26 tumor cells) | Individual Donors Conc of highest rescue ([3]; concentration (of 1, 0.3, 0.1 μM tested) at which highest TNFa rescue was observed) |
| --- | --- | --- | --- | --- | --- | --- | --- | --- |
| Cc1ccc(-c2cc(C(=O)NCC(O)C(F)(F)F)c(=O)n(-c3cc(F)cc(F)c3)n2)cc1 (single isomer, unassigned) [Example 54, 2-(3,5-Difluorophenyl)-6-(4-methylphenyl)-3-oxo-N-(3,3,3-trifluoro-2-hydroxypropyl)-2,3-dihydropyridazine-4-carboxamide] | 4.07e-08 |  |  |  | > 20000 |  |  |  |
| CC(C)(O)C(NC(=O)c1cc(-c2ccc(Cl)cc2)nn(-c2cccc(F)c2)c1=O)C(F)(F)F (single isomer, unassigned) [Example 279] | 6.07e-09 | 2.89e-09 | > 2e-05 |  |  | 53 |  |  |
| C[C@@H](CO)NC(=O)c1cc(-c2ccc(Cl)c(Cl)c2)nn(-c2cccc(F)c2)c1=O [Example 300, 6-(3,4-Dichlorophenyl)-2-(3-fluorophenyl)-N-[(2S)-1-hydroxypropan-2-yl]-3-oxo-2,3-dihydropyridazine-4-carboxamide] | 1.19e-07 | 1.07e-07 |  | > 2e-05 |  | 122 |  |  |
| CC(C)(O)[C@@H](NC(=O)c1cc(-c2ccc(OC(F)(F)F)cc2)nn(-c2cccc(F)c2)c1=O)C1CC1 [Example 379, N-[(1S)-1-cyclopropyl-2-hydroxy-2-methylpropyl]-2-(3-fluorophenyl)-3-oxo-6-[4-(trifluoromethoxy)phenyl]-2,3-dihydropyridazine-4-carboxamide] | 9.6e-09 | 6.9e-09 |  | > 2e-05 |  |  |  |  |
| C[C@H](NC(=O)c1cc(-c2ccc(OC(F)(F)F)cc2)nn(-c2cccc(F)c2)c1=O)C(C)(C)O [Example 380, 2-(3-fluorophenyl)-N-[(2S)-3-hydroxy-3-methylbutan-2-yl]-3-oxo-6-[4-(trifluoromethoxy)phenyl]-2,3-dihydropyridazine-4-carboxamide] | 2.8e-08 | 6.3e-08 |  | > 0.0001 |  |  |  |  |
| C[C@H](NC(=O)c1cc(-c2ccc(C(F)F)cc2)nn(-c2cccc(F)c2)c1=O)C(C)(C)O [Example 383, 6-[4-(difluoromethyl)phenyl]-2-(3-fluorophenyl)-N-[(2S)-3-hydroxy-3-methylbutan-2-yl]-3-oxo-2,3-dihydropyridazine-4-carboxamide] | 2.1e-08 | 3.4e-08 |  | > 2e-05 |  |  |  |  |
| Cc1cncc(-c2nc(NCCc3c[nH]c4ccccc34)c3ncn(C(C)C)c3n2)c1 [GNF-351, reference compound] |  |  |  |  |  |  |  | 0.3 µM and 0.1 µM |

The next lines start with results.

| IC50 (AHR [1]) [M] | IC50 [4] [M] | IC50 (AHR [5]; [6]) [M] | IC50 (AHR [5]; [7]) [M] | SMILES | IC50 (AHR [2]) [nM] | Emax [3] [%] | T/C, ratio of tumor size under treatment versus tumor size in the control group (CT26 tumor cells) | Individual Donors Conc of highest rescue ([3]; concentration (of 1, 0.3, 0.1 μM tested) at which highest TNFa rescue was observed) |
| --- | --- | --- | --- | --- | --- | --- | --- | --- |
| 1.04e-08 | 3.77e-09 | > 2e-05 |  | O=C(NC(CO)C(F)(F)F)c1cc(-c2ccc(Cl)cc2)nn(-c2cccc(F)c2)c1=O (single isomer, unassigned; (+)) [Example 99, (+)-6-(4-Chlorophenyl)-2-(3-fluorophenyl)-3-oxo-N-(1,1,1-trifluoro-3-hydroxypropan-2-yl)-2,3-dihydropyridazine-4-carboxamide] |  | 101 |  |  |
| 3.99e-08 | 7.07e-08 |  | > 2e-05 | C[C@@H](CO)NC(=O)c1cc(-c2ccc(Cl)cc2)nn(-c2cccc(F)c2)c1=O [Example 23, 6-(4-Chlorophenyl)-2-(3-fluorophenyl)-N-[(2S)-1-hydroxypropan-2-yl]-3-oxo-2,3-dihydropyridazine-4-carboxamide] |  |  | 0.75 |  |
| 4.52e-07 | 6e-07 |  | > 2e-05 | O=C(NCC1(O)CCCCC1)c1cc(-c2ccc(Cl)cc2)nn(-c2cccc(F)c2)c1=O [Example 129, 6-(4-Chlorophenyl)-2-(3-fluorophenyl)-N-[(1-hydroxycyclohexyl)methyl]-3-oxo-2,3-dihydropyridazine-4-carboxamide] |  | 30 |  |  |
| 3.97e-08 | 8.05e-08 |  | > 2e-05 | CC[C@@H](CO)NC(=O)c1cc(-c2ccc(Cl)c(F)c2)nn(-c2cccc(F)c2)c1=O [Example 288, 6-(4-Chloro-3-fluorophenyl)-2-(3-fluorophenyl)-N-[(2S)-1-hydroxybutan-2-yl]-3-oxo-2,3-dihydropyridazine-4-carboxamide] |  | 82 |  |  |
| 2.73e-08 | 8.1e-08 |  | > 2e-05 | CC(C)[C@@H](CO)NC(=O)c1cc(-c2ccc(Cl)c(Cl)c2)nn(-c2cccc(F)c2)c1=O [Example 301, 6-(3,4-Dichlorophenyl)-2-(3-fluorophenyl)-N-[(2S)-1-hydroxy-3-methylbutan-2-yl]-3-oxo-2,3-dihydropyridazine-4-carboxamide] |  | 112 |  |  |
| 2.6e-08 | 5.7e-08 |  | > 2e-05 | C[C@H](NC(=O)c1cc(-c2ccc(Cl)cc2)nn(-c2cccc(F)c2)c1=O)C(C)(C)O [Example 392, 6-(4-chlorophenyl)-2-(3-fluorophenyl)-N-[(2S)-3-hydroxy-3-methylbutan-2-yl]-3-oxo-2,3-dihydropyridazine-4-carboxamide] |  |  |  |  |
| 2.7e-08 | 4.6e-08 |  | > 2e-05 | N#C[C@@H](CO)NC(=O)c1cc(-c2ccc(Cl)cc2)nn(-c2cccc(F)c2)c1=O [Example 393, 6-(4-chlorophenyl)-N-[(1S)-1-cyano-2-hydroxyethyl]-2-(3-fluorophenyl)-3-oxo-2,3-dihydropyridazine-4-carboxamide] |  |  |  |  |
